# Measured values from patent publication US20070123533A1, “New process for preparing an optically pure 2-morpholinol derivative” (SMITHKLINE BEECHAM CORPORATION, priority 2003, published 2007).
# Tests used:
# [1] = Solubility of the racemate in the chromatography eluent; type: physicochemical; settings: organic solvent or mixture
# Text: The selectivity obtained has a strong influence on process productivity. As illustrated in Example 3 below the addition of isopropanol to the acetonitrile mobile phase increased the selectivity over two-fold. The process productivity is almost proportional to [formula] but other parameters also have to be considered to select the best chromatographic conditions. The process is also influenced by the retention of the compounds, with tests showing the retention to be maximal at 2-3% isopropanol. However the solubility of the racemate is shown to increase with increasing isopropanol content allowing a more concentrated feed to be injected. […] Also from the standpoint of process operation robustness, since MCC involves continuous operation it is important to avoid any precipitation effects which could halt the system. Using a mobile phase containing isopropanol reduces the likelihood of precipitation occurring and is advantageous over a MCC system operating purely in 100% acetonitrile in which racemate feed and isolated enantiomers are less soluble. […]
# [2] = Racemization of the pure enantiomer in heated solvents, optical purity followed over time; type: physicochemical; settings: for Final OP (%): about 60-65° C. under reflux, starting OP >99.8%, about 20 g/L
# Protocol: Pure (+)-(2S,3S)-2-(3-chlorophenyl)-3,5,5-trimethyl-2-morpholinol was tested with various solvents in order to optimize the racemization. Specifically, about 2 g of pure enantiomer ((+)(2S,3S)-2-(3-chlorophenyl)-3,5,5-trimethyl-2-morpholinol) were dissolved into 100 ml (total concentration of about 20 g/L) of solvent (see various solvents below) and heated up to about 60-65° C. under stirring (under reflux). The solution was sampled periodically in order to follow the kinetics of racemization.
# Table 11 illustrates the Optical Purity of the racemization of the enantiomer in various solvents or solvent mixtures: […]
SMILES,solubility ([1]; in acetonitrile/isopropanol 95/5 mixture),solubility ([1]; in pure acetonitrile),"Final OP (%) ([2]; Acetonitrile/IPA (95/5), 20 hours)","Final OP (%) ([2]; Isopropanol, 20 hours)","Final OP (%) ([2]; Methanol, 2 hours)","Final OP (%) ([2]; Methanol/HCl, 2 hours)","Final OP (%) ([2]; Water/HCl, 2 hours)",racemization (in words) ([2]; acidic aqueous solvent),"racemization conversion ([2]; methanol, after 2 hours)","racemization conversion ([2]; pure isopropanol, after 20 hours)"
"C[C@H]1NC(C)(C)CO[C@]1(O)c1cccc(Cl)c1 (racemic) [racemate, (+/−)-(2R*, 3R*)-2-(3-chlorophenyl)-3,5,5-trimethyl-2-morpholinol]",30 mg/mL,22.5 mg/mL,–,–,–,–,–,–,–,–
"C[C@@H]1NC(C)(C)CO[C@@]1(O)c1cccc(Cl)c1 [(+)-(2S,3S)-2-(3-chlorophenyl)-3,5,5-trimethyl-2-morpholinol]",–,–,92.8%,84.8%,95.3%,97.4%,>99.8%,No racemization is observed,10%,30%
